According to patent US9802899B2, “Heterocyclic compounds as pesticides” (BAYER CROPSCIENCE AG, priority 2012, dated 2017):

Assay: Determination of the log P values by HPLC (formic acid method)
Assay type: physicochemical
Details: reversed-phase HPLC column (C 18), reversed-phase column (C 18), acidic range (pH 3.4), 55° C.
Description: 1) Description of Method for Determination of the Log P Values (Formic Acid Method)
Eluents for determination in the acidic range (pH 3.4):
Eluent A: acetonitrile+1 ml of formic acid/liter. Eluent B: water+0.9 ml of formic acid/liter.
The lambda max values were determined in the maxima of the chromatographic signals using the UV spectra from 200 nm to 400 nm.

Compared with `CCOc1c(Cl)cccc1-n1ccc(N)n1` [1-(3-Chloro-2-ethoxyphenyl)-1H-pyrazole-3-amine], `CCOc1cccc(F)c1-n1ccc(N)n1` [1-(2-Ethoxy-6-fluorophenyl)-1H-pyrazole-3-amine] is lower in chromatographic logP: 2.13 for the first, 1.47 for the second.

Compared with `CCN(CC)c1ccc(C#N)c(-n2ccc(NC(=O)c3ccccc3C(F)(F)F)n2)n1` [Compound I-1-568, N-{1-[3-Cyano-6-(diethylamino)pyridin-2-yl]-1H-pyrazol-3-yl}-2-(trifluoromethyl)benzamide], `Nc1cnn(-c2ncccc2F)n1` [2-(3-Fluoropyridin-2-yl)-2H-1,2,3-triazole-4-amine] is lower in chromatographic logP: 3.76 for the first, 0.4 for the second.

Same assay, conditions: reversed-phase column (C 18), acidic range (pH 3.4), 55° C.

Compared with `O=C(Nc1ccn(-c2cccc(Cl)c2F)n1)c1cccnc1Br` [Compound I-1-558], `O=C(Nc1ccn(-c2cccc(Cl)c2F)n1)c1ccccc1Br` [Compound I-1-557] is higher in “log P” value: 2.64 for the first, 3.31 for the second.

Compared with `O=C(Nc1ccn(-c2nccnc2F)n1)c1ccccc1Br` [Compound I-1-175], `O=C(Nc1ccn(-c2ncccc2Br)n1)c1ccccc1Br` [Compound I-1-552] is higher in “log P” value: 2.09 for the first, 2.31 for the second.

Compared with `Cn1nc(C(F)(F)C(F)(F)F)c(C(F)(F)F)c1C(=O)Nc1ccn(-c2c(F)cccc2F)n1` [Compound I-1-237], `Cn1nc(C(C)(C)C)c([N+](=O)[O-])c1C(=O)Nc1ccn(-c2c(F)cccc2F)n1` [Compound I-1-292] is lower in “log P” value: 3.84 for the first, 3.33 for the second.

Going from `O=C(Nc1ccn(-c2cnc(Cl)cn2)n1)c1cccnc1C(F)(F)F` [Compound I-1-386] to `O=C(Nc1ccn(-c2cnc(Cl)cn2)n1)c1ccccc1C(F)(F)F` [Compound I-1-385], the “log P” value rises from 2.45 to 2.94.

Going from `O=C(Nc1ccn(-c2ncc(C(F)(F)F)cc2Cl)n1)c1ccccc1C(F)(F)F` [Compound I-1-560] to `CCOc1cccc(Cl)c1-n1ccc(NC(=O)c2ccccc2C(F)(F)F)n1` [Compound I-1-340], the “log P” value falls from 3.41 to 3.15.

First: Cc1cc(NC(=O)c2cnccc2C(F)(F)F)nn1-c1ccccc1Cl [Compound I-1-380]
Second: Cc1cc(NC(=O)c2ncccc2C(F)(F)F)nn1-c1ccccc1Cl [Compound I-1-376]
The “log P” value of the first is lower: 2.09 for the first, 2.57 for the second.

First: O=C(Nc1ccn(-c2ncc(F)cc2F)n1)c1cccnc1Br [Compound I-1-482]
Second: O=C(Nc1ccn(-c2ncc(F)cc2F)n1)c1ccccc1Br [Compound I-1-144]
The “log P” value of the first is lower: 1.77 for the first, 2.36 for the second.

`COc1ccccc1C(=O)Nc1ccn(-c2ncc(F)cc2F)n1` [Compound I-1-496] and `O=C(Nc1ccn(-c2ncc(F)cc2F)n1)c1ccccc1OC(F)F` [Compound I-1-458] are within 0.2 log units of each other in “log P” value: 2.55 for the first, 2.53 for the second.

First: Cc1nn(C)c(F)c1C(=O)Nc1ccn(-c2ccccc2Cl)n1 [Compound I-1-382]
Second: Cn1nc(C(F)(F)F)c(C(=O)Nc2ccn(-c3ccccc3Cl)n2)c1F [Compound I-1-383]
The “log P” value of the first is lower: 2.15 for the first, 2.86 for the second.

First: CC(C)c1nn(C)c(C(=O)Nc2ccn(-c3ncc(F)cc3F)n2)c1[N+](=O)[O-] [Compound I-1-509]
Second: Cn1ncc(I)c1C(=O)Nc1ccn(-c2ncc(F)cc2F)n1 [Compound I-1-540]
The “log P” value of the first is higher: 2.72 for the first, 2.20 for the second.

Compared with `N#Cc1c(F)cccc1-n1ccc(NC(=O)c2c(F)cccc2C(F)(F)F)n1` [Compound I-1-623], `O=C(Nc1ccn(-c2ccccc2Cl)n1)c1c(F)cccc1C(F)(F)F` [Compound I-1-384] is higher in “log P” value: 2.68 for the first, 3.05 for the second.

`O=C(Nc1ccn(-c2c(F)cccc2F)n1)c1sccc1I` [Compound I-1-104] and `O=C(Nc1ccn(-c2c(F)cccc2F)n1)c1sccc1C(F)F` [Compound I-1-282] are within 0.2 log units of each other in “log P” value: 2.96 for the first, 2.80 for the second.

Compared with `O=C(Nc1ccn(-c2ncccc2F)n1)c1occc1I` [Compound I-1-582], `O=C(Nc1ccn(-c2ncccc2F)n1)c1cccnc1Br` [Compound I-1-578] is lower in “log P” value: 2.16 for the first, 1.57 for the second.

`O=C(Nc1ccn(-c2ncc(Cl)cc2Cl)n1)c1ccccc1Cl` [Compound I-1-432] and `O=C(Nc1ccn(-c2ncc(Cl)cc2Cl)n1)c1ccccc1Br` [Compound I-1-430] are within 0.2 log units of each other in “log P” value: 2.91 for the first, 2.95 for the second.

Going from `O=C(Nc1ccn(-c2c(F)cccc2F)n1)c1ccc[n+]([O-])c1C(F)(F)F` [Compound I-1-243] to `O=C(Nc1ccn(-c2c(F)cccc2F)n1)c1cc(Cl)ccc1C(F)(F)F` [Compound I-1-329], the “log P” value rises from 1.80 to 3.11.

Compared with `Cc1ccsc1C(=O)Nc1ccn(-c2ccccc2Cl)n1` [Compound I-1-46], `Cc1occc1C(=O)Nc1ccn(-c2ccccc2Cl)n1` [Compound I-1-370] is lower in “log P” value: 2.96 for the first, 2.71 for the second.

`Cc1cc(NC(=O)c2ccccc2Br)nn1-c1ccccc1Cl` [Compound I-1-356] and `Cc1cc(NC(=O)c2ccccc2Cl)nn1-c1ccccc1Cl` [Compound I-1-31] are the same in “log P” value: 2.45 for the first, 2.45 for the second.

`O=C(Nc1cnn(-c2c(F)cccc2F)n1)c1ccccc1Br` [Compound I-2-36] and `O=C(Nc1ccn(-c2c(F)cccc2F)n1)c1ccccc1F` [Compound I-1-278] are within 0.2 log units of each other in “log P” value: 2.71 for the first, 2.60 for the second.

`O=C(Nc1cnn(-c2ncccc2F)n1)c1ccccc1C(F)(F)F` [Compound I-2-44] and `O=C(Nc1cnn(-c2ncc(F)cc2F)n1)c1ccccc1Cl` [Compound I-2-70] are within 0.2 log units of each other in “log P” value: 2.18 for the first, 2.22 for the second.

Compared with `CCCc1nn(C)c(C(=O)Nc2ccn(-c3c(F)cccc3F)n2)c1Cl` [Compound I-1-313], `CCn1nc(C)c(Cl)c1C(=O)Nc1ccn(-c2c(F)cccc2F)n1` [Compound I-1-309] is lower in “log P” value: 3.68 for the first, 3.15 for the second.

Compared with `O=C(Nc1ccn(-c2c(F)cccc2F)n1)c1cccc(Cl)c1Cl` [Compound I-1-266], `Cc1nn(C)cc1C(=O)Nc1ccn(-c2c(F)cccc2F)n1` [Compound I-1-107] is lower in “log P” value: 2.93 for the first, 1.71 for the second.

Compared with `O=C(Nc1ccn(-c2nc(F)c(F)cc2F)n1)c1c(F)cccc1F` [Compound I-1-166], `CCc1cc(NC(=O)c2c(F)cccc2F)nn1-c1ccc(F)cc1F` [Compound I-1-207] is higher in “log P” value: 2.51 for the first, 3.84 for the second.

Going from `CS(=O)(=O)c1ccccc1C(=O)Nc1ccn(-c2ncc(F)cc2F)n1` [Compound I-1-462] to `CS(=O)(=O)c1ccccc1-n1ccc(NC(=O)c2cccnc2C(F)(F)F)n1` [Compound I-1-180], the “log P” value rises from 1.69 to 2.00.

Going from `COc1ccccc1-n1ccc(NC(=O)c2cccnc2Br)n1` [Compound I-1-409] to `CC(C)(C)c1ccccc1C(=O)Nc1ccn(-c2ccccc2Cl)n1` [Compound I-1-373], the “log P” value rises from 2.12 to 3.85.

Going from `Cn1cncc1C(=O)Nc1ccn(-c2ncc(F)cc2F)n1` [Compound I-1-646] to `Cn1cnnc1C(=O)Nc1ccn(-c2ncc(F)cc2F)n1` [Compound I-1-544], the “log P” value rises from 0.70 to 1.29.

First: Cn1ncnc1C(=O)Nc1ccn(-c2ncc(F)cc2F)n1 [Compound I-1-449]
Second: CCn1ncc(Br)c1C(=O)Nc1ccn(-c2ncc(F)cc2F)n1 [Compound I-1-518]
The “log P” value of the first is lower: 1.67 for the first, 2.61 for the second.

Going from `O=C(Nc1ccn(-c2ccc(F)cn2)n1)c1ccccc1I` [Compound I-1-599] to `O=C(Nc1ccn(-c2cccc(F)c2F)n1)c1ccccc1I` [Compound I-1-67], the “log P” value rises from 2.78 to 3.10.

`CCN(C(=O)c1ccccc1C(F)(F)F)c1ccn(-c2ncc(F)cc2F)n1` [Compound I-1-468] and `CCN(C(=O)c1ccccc1C(F)(F)F)c1ccn(-c2c(F)cccc2F)n1` [Compound I-1-254] are within 0.2 log units of each other in “log P” value: 3.23 for the first, 3.31 for the second.

`N#Cc1c(F)cccc1-n1ccc(NC(=O)c2ccccc2I)n1` [Compound I-1-625] and `N#Cc1cn(-c2ccccc2Cl)nc1NC(=O)c1ccccc1I` [Compound I-1-368] are within 0.2 log units of each other in “log P” value: 2.63 for the first, 2.51 for the second.

Compared with `O=C(Nc1ccn(-c2ncc(Cl)cc2F)n1)c1ccsc1I` [Compound I-1-592], `O=C(Nc1ccn(-c2ncc(F)cc2F)n1)c1sccc1I` [Compound I-1-507] is lower in “log P” value: 2.99 for the first, 2.69 for the second.

`CC1=C(C(=O)Nc2ccn(-c3c(F)cccc3F)n2)OCCO1` [Compound I-1-615] and `Cn1ccc([N+](=O)[O-])c1C(=O)Nc1ccn(-c2c(F)cccc2F)n1` [Compound I-1-239] are within 0.2 log units of each other in “log P” value: 2.42 for the first, 2.50 for the second.

First: Cn1nc(C(F)F)c(C(=O)Nc2ccn(-c3ncc(F)cc3F)n2)c1F [Compound I-1-500]
Second: Cn1nc(C(F)F)c(C(=O)Nc2ccn(-c3ccccc3Br)n2)c1F [Compound I-1-58]
The “log P” value of the first is lower: 2.06 for the first, 2.63 for the second.

First: O=C(c1ccccc1C(F)(F)F)N(C(=O)c1ccccc1C(F)(F)F)c1nn(-c2ccccc2Cl)nc1Cl [Compound I-2-20]
Second: O=C(Nc1cnn(-c2ccccc2Cl)n1)c1ccccc1I [Compound I-2-3]
The “log P” value of the first is higher: 4.87 for the first, 3.03 for the second.

Compared with `O=C(NC1=NN(c2ccccc2Cl)CC1)c1ccccc1Br` [Compound I-4-8], `Cc1cc(NC(=O)c2ccccc2Br)nn1-c1ccc(F)cc1F` [Compound I-1-208] is higher in “log P” value: 2.37 for the first, 3.63 for the second.

With `Cc1nc(C(F)(F)F)c(C(=O)Nc2ccn(-c3ccccc3Cl)n2)s1` [Compound I-1-371] the “log P” value was 2.88.
